Structures are written as SMILES. Where “and” joins values, the source holds several entries; their conditions need not be identical. Equal entries are not always repeated.

We go through nine compounds from EPA's ToxValDB 9.5.

Data set [1] deals with Mus musculus. To be noted: uterotrophic, Active.
In data set [2] the test system is Rattus norvegicus. To be noted: uterotrophic; duration: 3 days; oral; Active.
Data set [3] concerns Rattus norvegicus. Particulars: subchronic, oral.
For data set [4], the system named is Rattus norvegicus. To be noted: for LD50 / LC50: acute.
For another data set, the system named is Oryctolagus sp. To be noted: for LD50: acute, dermal; for NOAEL: duration: 24 days, oral, gavage.
Data set [5] deals with Mus musculus. Particulars: oral; for LD50: acute; for LOAEL / NOAEL: subchronic, duration: 13 weeks, B6C3F1.
For data set [6], the system named is Rattus norvegicus. Particulars: reproduction developmental; oral; M/F; mortality and kidney lesions.
Where [7] appears, read: developmental, duration: 10 days, oral, Wistar.
The mark [8] stands for this setting: developmental, duration: 128 days, oral, gavage, Wistar.
The mark [9] stands for this setting: reproduction developmental, duration: 10 days, oral, F, Wistar.
Where [10] appears, read: reproduction developmental, duration: 27 days, oral, gavage, F, Wistar.
Setting [11] is: reproduction developmental, duration: 27 days, oral, gavage, Wistar, generation: F1.
Where [12] appears, read: reproduction developmental, duration: 86 days, oral, gavage, Wistar.
Where [13] appears, read: reproduction developmental, duration: 128 days, oral, gavage, F, Wistar.
[14] abbreviates: reproduction developmental, duration: 128 days, oral, gavage, Wistar.

With `O=C(O)Cc1cc(I)c(Oc2ccc(O)c(I)c2)c(I)c1` [Tiratricol], the LEL is 1000 mg/kg-day in the data set on Mus musculus [1] (duration: 7 days, injection, subcutaneous) and 1000 mg/kg-day in the data set with Mus musculus [1] (duration: 7 days, oral).
As for `O=C(O)c1ccc(O)cc1` [4-Hydroxybenzoic acid], in the data set on Mus musculus [1] (duration: 3 days, injection, subcutaneous), the LEL is 5 mg/kg-day.
In the case of `O=C(OCc1ccccc1)c1ccc(O)cc1` [Benzyl 4-hydroxybenzoate], the LEL turned out to be 0.16 mg/kg-day with Rattus norvegicus [2] and 100 mg/day in the data set with Mus musculus [1] (duration: 3 days, dermal).
`CC[C@H](c1ccc(O)cc1)[C@@H](CC)c1ccc(O)cc1` [meso-Hexestrol]: the LEL in the data set with Mus musculus [1] (duration: 1 days, injection, subcutaneous) stood at 0.00914 mg/animal; in the data set on Mus musculus [1] (duration: 1.2 days, injection, subcutaneous) it was 0.00914 mg/animal.
Broadly, the LD50 is the dose expected to kill half of the subjects tested. Read a low LD50 as a more toxic substance. In the data set with Rattus norvegicus [3] (gavage, M, Sprague-Dawley, Hematology: PT increase(tendency) APTT increase), `CCCCCCCCc1ccc(Nc2ccc(CCCCCCCC)cc2)cc1` [4,4'-Dioctyldiphenylamine] gave an NOEL of 25 mg/kg-day. Also, the LD50 in the data set with Rattus norvegicus [4] (oral, gavage, Sprague-Dawley) was above 7940 mg/kg; with Oryctolagus sp. (occlusive, New Zealand), above 7940 mg/kg.
In general, LOAEL refers to the lowest tested level that showed an adverse finding. By NOAEL is commonly meant the highest tested level that showed no adverse finding. On to `C=CC(=C)CCC=C(C)C` [Myrcene], for which the LD50 is above 5000 mg/kg in the data set on Rattus norvegicus [4] (oral, Wistar); above 11400 mg/kg in the data set on Rattus norvegicus [4] (oral, gavage, Wistar); above 5000 mg/kg with Oryctolagus sp. (New Zealand); 5060 mg/kg in the data set on Mus musculus [5] (gavage, Swiss). The LOAEL with Rattus norvegicus [4] (setting [7]) amounted to 1200 mg/kg-day; in the data set with Rattus norvegicus [4] (setting [8]), 500 mg/kg-day; with Rattus norvegicus [4] (setting [9]), 1200 mg/kg-day; in the data set on Rattus norvegicus [4] (setting [10]) it was 1000 mg/kg-day; in the data set on Rattus norvegicus [4] (setting [11]), 500 mg/kg-day; in the data set on Rattus norvegicus [4] (setting [12]) it was 500 mg/kg-day. Besides, the LOAEL was 1000 mg/kg-day in the data set on Rattus norvegicus [4] (setting [13]); 500 mg/kg-day with Rattus norvegicus [4] (setting [14]); 250 mg/kg-day with Rattus norvegicus [4] (subchronic, duration: 13 weeks, oral, gavage, Fischer 344); 500 mg/kg-day in the data set with Mus musculus [5] (gavage, F); 1000 mg/kg-day in the data set on Mus musculus [5] (gavage, M). The NOAEL turned out to be 500 mg/kg-day with Rattus norvegicus [4] (setting [7]); 250 mg/kg-day in the data set with Rattus norvegicus [4] (developmental, duration: 27 days, oral, gavage, Wistar); 250 mg/kg-day in the data set with Rattus norvegicus [4] (setting [8]); 500 mg/kg-day in the data set on Rattus norvegicus [4] (setting [9]); 500 mg/kg-day in the data set with Rattus norvegicus [4] (setting [10]); 250 mg/kg-day with Rattus norvegicus [4] (setting [11]). For the same compound, the NOAEL turned out to be 300 mg/kg-day with Rattus norvegicus [4] (setting [12]); 500 mg/kg-day with Rattus norvegicus [4] (setting [13]); 250 mg/kg-day in the data set on Rattus norvegicus [4] (setting [14]); 300 mg/kg-day in the data set on Rattus norvegicus [4] (reproduction developmental, oral, gavage, Wistar); 250 mg/kg-day in the data set with Mus musculus [5] (gavage, F); 500 mg/kg-day in the data set on Mus musculus [5] (gavage, M).
`Cc1cccc([N+](=O)[O-])c1` [3-Nitrotoluene]: the NOEL in the data set with Rattus norvegicus [3] (diet, F, Fischer 344, Body Weight Changes: decrease + Food Consumption: decrease + Hematology: Hct decrease, Hgb decrease, RBC decrease, MCV increase, MCH …) is below 48 mg/kg-day; in the data set on Rattus norvegicus [3] (diet, M/F, Fischer 344, Body Weight Changes: decrease + Food Consumption: decrease + Hematology: Hct decrease, Hgb decrease, RBC decrease, MCV increase, MCH …), below 60 mg/kg-day. The LD50 in the data set with Rattus norvegicus [4] (dermal) was above 1160 mg/kg; in the data set on Rattus norvegicus [4] (oral), 2120 mg/kg and 1070 mg/kg and 1780 mg/kg; in the data set with Rattus norvegicus [4] (oral, Sprague-Dawley) it was 1070 mg/kg; in the data set on Rattus norvegicus [4] (oral, gavage, Wistar), 2200 mg/kg and 2000 mg/kg; in the data set on Oryctolagus sp. (New Zealand) it was above 20000 mg/kg; in the data set on Mus musculus [5] it was 1230 mg/kg. The LC50 in the data set on Rattus norvegicus [4] (inhalation) is above 2.42 µg/mL; in the data set with Rattus norvegicus [4] (inhalation, Sprague-Dawley), above 881 mg/m3. Moreover, the LOAEL is 60 mg/kg-day with Rattus norvegicus [4] (subchronic, duration: 13 weeks, oral, diet, F, Fischer 344); 60 mg/kg-day with Rattus norvegicus [4] (subchronic, duration: 13 weeks, oral, diet, M, Fischer 344); ≥ 123 mg/kg-day and ≤ 133 mg/kg-day in the data set on Mus musculus [5] (diet).
With `O=C(Oc1ccccc1)c1ccccc1O` [Phenyl salicylate], the LEL in the data set on Mus musculus [1] (duration: 3 days, oral) stood at 33.3 mg/kg-day.
Consider `O=C([O-])c1cc(Oc2ccc(C(F)(F)F)cc2Cl)ccc1[N+](=O)[O-].[Na+]` [Acifluorfen sodium], for which, in the data set with Rattus norvegicus [4] (Inhalation, albino King (Kng:(SD)BR)), the LC50 is above 1.38 µg/mL. For the same compound, the LD50 was 122 mg/kg with Rattus norvegicus [4] (oral, CF Nelson) and 1460 mg/kg with Oryctolagus sp. (occlusive, Albino). Moreover, the NOAEL with Rattus norvegicus [4] (developmental, duration: 14 days, oral, gavage, Crl:COBS-CD-(SD)BR) came to 20 mg/kg-day; with Oryctolagus sp. (developmental, New Zealand), 12 mg/kg-day; in the data set on Oryctolagus sp. (reproduction developmental, F, New Zealand), 12 mg/kg-day. For the same compound, in the data set with Rattus norvegicus [6], the LEL turned out to be 25 mg/kg-day. The same compound had an NOEL with Rattus norvegicus [6] of 1.25 mg/kg-day.
